The values below are quoted from earlier work in US20030004236A1, “Magnetic resonance imaging agents for detection and delivery of therapeutic agents and detection of physiological substances” (priority 2001, published 2003).

For this data set the following is noted: thermodynamic stability of the Gd(III) chelate; background section.

With `O=C([O-])CN(CCN(CC(=O)[O-])CC(=O)[O-])CCN(CC(=O)[O-])CC(=O)[O-].[Gd+3]` [Gd(DTPA)^2−], the “stability constant (K), also known as formation constant, logK” value was 22.4.
With `O=C([O-])CN1CCN(CC(=O)[O-])CCN(CC(=O)O)CCN(CC(=O)[O-])CC1.[Gd+3]` [Gd-DOTA], the “stability constant (K), also known as formation constant, logK” value is reported as 28.5.
